# Tests used:
# [1] = system: human primary dermal fibroblasts; test: Attachment and spreading of primary dermal fibroblasts on a Type I collagen matrix; format: cell-based
# Method: Assay of HF effects on contractile behavior of dermal fibroblasts. Previous studies have established that HF can modulate fibrosis in vivo, and regulate ECM production by cells in vitro. The studies described herein provide a simple assay to test the effects of HF and its putative mediators on the behavior of cells likely to provide the basis for the structural features of cellulite—dermal fibroblasts and myofibroblasts. When human primary dermal fibroblasts are cultured in a matrix of Type I collagen, mimicking the interstitial matrix of the dermis and hypodermis, they attach to the substratum and spread, exerting contractile force on the surrounding interstitial matrix (FIG. 2A).
# TIF1β = biological target: T1, TIF1β (Mus musculus, UniProt Q62318); test: HF-affinity resin binding / free-compound competition for TIF1β
# T1 construct: endogenous in cells; host or cells: SV-MES cells (lysate)
# From the text: The molecular mechanisms underlying the regulation of ECM by HF currently are not known. […] These proteins, TIF1β and Ruvbl2, are both transcriptional regulatory proteins. TIF1β is known to interact with transcription factors that regulate Type I collagen expression, providing the first molecular connection between HF and the regulation of an ECM gene. A brief description and data detailing the isolation and identification of HF binding proteins are provided below. […] This band was identified by tandem mass spectrometry as TIF1β. These HF binding proteins were isolated and identified by tandem mass spectrometry. Using this approach, the transcriptional co-repressor TIF1β (FIG. 4) was initially identified as an HF binding protein. A cDNA encoding TIF1β was also identified and used to confirm that TIF1β binds specifically to HF (FIG. 5). Cloned, tagged TIF1β was transfected into SV-MES cells and precipitated with HF-resin.
# RuvBl2 = biological target: T2, RuvBl2 (Mus musculus, UniProt Q9WTM5); test: HF affinity purification / tandem mass spectrometry, RuvBl2; format: binding
# T2 construct: endogenous in cells; host or cells: SV-MES cell lysate (inferred from the same approach described)
# From the text: TIF1β is a member of a family of transcriptional co-repressors (Chang, et al., Mol Cell Biol, vol. 18: 5880-87 (1998); Hsu, et al. Embo J., vol. 20: 2273-85 (2001); Le Douarin, et al. J Steroid Biochem Mol Biol 65, 43-50 (1998)). TIF1β interacts with a variety of transcription factors, including nuclear receptors, to mediate regulation of chromatin modification (Chang, et al., Mol Cell Biol, vol. 18: 5880-87 (1998); Hsu, et al. Embo J., vol. 20: 2273-85 (2001); Nomura, et al. J Biol Chem 279, 16715-26 (2004)). TIF1β interacts with a number of transcription factors known to regulate the synthesis of Type I collagen, providing a direct link between HF, TIF1β and the transcription of extracellular matrix genes. […] Ruvbl2, also known as Reptin, ECP51, Tip48, and Tip49b, is, like TIF1β, known to function in transcriptional regulation and chromatin re-modeling (Kanemaki, et al. J Biol Chem 274, 22437-44 (1999)). The identification of halofuginone's intracellular effectors, and the binding sites for halofuginone in those effectors, provides additional approaches to targeting the deposition of sub-dermal ECM. New classes of small molecules can be designed to target intracellular effectors such as TIF1β and RuvBl2, broadening the range of potential therapeutic agents for the treatment of cellulite.
# [2] = system: NMuMg murine epithelial cells; test: TGFβ-induced myofibroblast formation, Western blot for smooth muscle actin; format: cell-based; details: 5 ng/ml TGFβ1, 72 hours, increasing doses
# Method: NMuMg murine epithelial cells were induced to undergo transition to myofibroblasts by stimulation with 5 ng/ml TGFβ1. After 72 hours, myofibroblast differentiation was assessed by Western blot for Smooth muscle actin (SMA), a myofibroblast contractile protein. […] Thus, HF inhibited myofibroblasts formation in response to TGFβ.
# [3] = system: Primary human dermal fibroblasts; format: cell-based; details: 100 nM, 5 ng/ml TGFβ1
# Method: Primary human dermal fibroblasts were seeded in a matrix of Type I collagen with 5 ng/ml TGFβ1 in the presence or absence of 100 nM HF. FIG. 7 depicts the effect of the presence and absence of HF on the behavior of TGFβ-treated dermal fibroblasts.
# [4] = system: human primary dermal fibroblasts; test: Fibroblast-driven collagen disc contraction; format: cell-based; details: 100 nM, 72 hours
# Method: Human primary dermal fibroblasts were seeded in a matrix of Type I collagen in the presence or absence of 5 ng/ml TGFβ or 100 nM HF. Collagen discs were released from attachment to the culture dish and allowed to undergo fibroblast-driven contraction for 72 hours. The area of the discs at time zero was 200 units.
# [5] = in vitro; cited from earlier work
# [6] = cited from earlier work
# T1 sequence (Q62318 whole entry): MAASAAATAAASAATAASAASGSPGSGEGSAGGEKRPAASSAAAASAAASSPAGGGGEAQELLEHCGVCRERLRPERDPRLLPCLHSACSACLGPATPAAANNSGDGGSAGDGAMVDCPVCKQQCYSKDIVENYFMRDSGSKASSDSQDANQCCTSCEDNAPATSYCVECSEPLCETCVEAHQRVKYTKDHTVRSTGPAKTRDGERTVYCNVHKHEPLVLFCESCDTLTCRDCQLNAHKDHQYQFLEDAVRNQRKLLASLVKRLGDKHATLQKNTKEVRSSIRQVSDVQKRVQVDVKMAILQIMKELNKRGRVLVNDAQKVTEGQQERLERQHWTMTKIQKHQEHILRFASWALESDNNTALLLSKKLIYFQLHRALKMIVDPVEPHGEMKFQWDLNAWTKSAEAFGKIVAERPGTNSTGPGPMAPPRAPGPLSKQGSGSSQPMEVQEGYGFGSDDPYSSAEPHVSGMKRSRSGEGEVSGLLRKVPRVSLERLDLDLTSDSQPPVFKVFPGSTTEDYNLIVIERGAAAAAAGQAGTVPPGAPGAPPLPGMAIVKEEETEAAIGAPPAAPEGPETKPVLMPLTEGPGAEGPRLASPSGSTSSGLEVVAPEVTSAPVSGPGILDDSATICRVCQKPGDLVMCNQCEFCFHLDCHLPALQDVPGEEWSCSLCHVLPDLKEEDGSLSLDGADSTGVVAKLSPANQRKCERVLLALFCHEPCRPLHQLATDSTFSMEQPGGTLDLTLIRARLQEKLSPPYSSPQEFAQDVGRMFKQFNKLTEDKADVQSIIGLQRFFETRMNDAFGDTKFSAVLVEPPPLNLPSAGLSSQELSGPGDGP
# T2 sequence (Q9WTM5 2-463 limits assumed): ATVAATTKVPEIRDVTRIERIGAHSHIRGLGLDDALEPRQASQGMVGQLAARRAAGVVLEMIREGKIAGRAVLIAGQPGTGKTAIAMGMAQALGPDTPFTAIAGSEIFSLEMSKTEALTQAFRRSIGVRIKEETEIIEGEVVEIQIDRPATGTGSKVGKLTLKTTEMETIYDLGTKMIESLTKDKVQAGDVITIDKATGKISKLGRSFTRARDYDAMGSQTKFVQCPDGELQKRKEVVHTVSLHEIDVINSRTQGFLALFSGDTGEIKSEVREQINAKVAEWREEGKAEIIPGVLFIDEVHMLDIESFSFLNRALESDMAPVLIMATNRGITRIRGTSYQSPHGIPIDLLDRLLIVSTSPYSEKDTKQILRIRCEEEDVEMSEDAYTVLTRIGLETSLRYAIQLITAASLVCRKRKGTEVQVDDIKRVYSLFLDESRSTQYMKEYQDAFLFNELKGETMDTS
Structure (SMILES),"ability of fibroblasts to attach and spread on collagen matrix ([1]; 200 nM, 24 hrs)",ability of fibroblasts to attach and spread on collagen matrix ([1]; as little as 30 nM),"competition by free compound for binding of TIF1β band to HF affinity resin (TIF1β; SV-MES cell lysates, excess free compound)","blocking of tagged TIF1β interaction with immobilized HF by pre-incubation (TIF1β; cloned, tagged TIF1β transfected into SV-MES cells, precipitated with HF-resin)",binding of RuvBl2 to HF (RuvBl2),smooth muscle actin (SMA) induction [2],fibroblast extensions and attachments to the matrix [3],contractile activity of myofibroblasts in a collagen matrix (disc area) [4],concentration at which it acts as an inhibitor of fibrosis [5],"excess dermal ECM deposition ([6]; animal models of wound healing and fibrotic disease, intra-peritoneally, in food or applied locally)",toxicity in vivo ([6]; in vivo)
"O=C(CC1NCCCC1O)Cn1cnc2cc(Br)c(Cl)cc2c1=O (stereo not drawn) [HF, 7-bromo-6-chloro-3-[3-(3-hydroxy-2-piperidinyl)-2-oxopropyl]-4(3H)-quinazolinone]",completely fail to attach and spread,Identical results,specifically competed,blocked TIF1β interaction with immobilized HF,second HF binding protein,eliminated SMA induction,no extensions or attachments to the matrix or to one another,inhibited the contractile activity,20 to 200 nM,reduces excess dermal ECM deposition,low-toxicity
CC(C)(C)OC(=O)N1CCC[C@H](O)[C@H]1CC(=O)Cn1cnc2cc(Br)c(Cl)cc2c1=O [MAZ1310],inactive,–,–,–,–,–,–,–,–,–,–
